Read-outs that look alike come from different tables or passages of the source.
Experiments:
[1] = tested on: enzyme decomposing R--Val--Val--X--Ala--X to Val--X--Ala--X; experiment: Effect of various inhibitors and metal ions on enzyme activity; assay type: biochemical, Bacillus sphaericus ATCC 14577
mice [2] = experiment: Acute toxicity by abdominal injection; assay type: in vivo
Description: (§1) As an example of one of the physiological activities of the peptide and N-acyl derivatives thereof obtained according to the present invention, anti-pepsin and anti-cathepsin D activities and also acute toxicity are given in Table 8. The activities (ID50) were assayed according to the method described above and The Journal of Antibiotics 25 689 (1972). The anti-protease activities of the peptide and N-acyl derivatives thereof are extremely high.
Acute toxicity was examined by administering the compounds to the mice by
(§2) The peptide Val--X--Ala--X and its N-acyl derivatives according to this invention have low toxicity; mice, dogs, rats and rabbits tolerated oral administration of more than 2.000 mg/kg. of the compounds, and LD50 of the compounds for animals when administered by intraperitoneal injections are shown in Table 8. Daily 250 mg/kg oral administrations of each of the compounds to rats for 90 days caused no toxicity, and the rats grew at the normal growth rate.

Cathepsin D = Cathepsin D (Homo sapiens, UniProt P07339); experiment: anti-cathepsin D activity; assay type: biochemical
Chain of Cathepsin D (P07339 65-412, species assumed): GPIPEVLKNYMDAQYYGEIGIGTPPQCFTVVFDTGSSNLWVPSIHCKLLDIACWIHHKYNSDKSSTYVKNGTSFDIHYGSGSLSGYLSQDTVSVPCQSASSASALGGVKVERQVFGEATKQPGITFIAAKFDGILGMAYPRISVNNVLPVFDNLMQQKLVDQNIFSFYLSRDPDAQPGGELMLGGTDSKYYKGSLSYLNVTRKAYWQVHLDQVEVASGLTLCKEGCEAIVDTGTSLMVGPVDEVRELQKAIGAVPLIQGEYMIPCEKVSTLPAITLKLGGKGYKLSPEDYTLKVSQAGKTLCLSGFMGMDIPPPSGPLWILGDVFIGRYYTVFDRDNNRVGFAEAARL
Description: as §1

[3] = tested on: enzyme decomposing R--Val--Val--X--Ala--X to Val--X--Ala--X; experiment: Substrate specificity of the purified enzyme; assay type: biochemical, Bacillus sphaericus ATCC 14577; details: in words
Description: A medium having the same composition as in Experiment 1 was prepared and 50 ml of the medium was poured into a 500 ml flask. After sterilization at 120° C for 10 minutes, the medium was inoculated with Bacillus sphaericus ATCC 14577 and incubated on a reciprocal shaker (120 r.p.m.) at 30° C for 24 hours to obtain a seed culture. To a 20l jar fermentor was added to 10l of the medium having the same composition, sterilized at 120° C for 15 minutes and inoculated with the seed culture. The cultivation was performed at 30° C with agitation (300 r.p.m.) and aeration (5l/minute).
After 15 hours growth, isovalery-L-valvy-L-valyl-4-amino-3-hydroxy-6-methylheptanoyl-L-alanyl-4-amino-3-hydroxy-6-methylheptanoic acid was added to the culture in a concentration of 50 meg/ml and the cultivation was continued for another 33 hours. Cells were harvested by centrifugation with a Spharpless centrifuge, suspended in 2l of cold 0.01M phosphate buffer, pH 7.0, and disrupted by sonication 20 Kc for 2 minutes. These and the following procedures were carried out under 4° C. A supernatant from the sonicate was heated at 60° C for 10 minutes at pH 7.0. The resulting precipitate was removed by centrifugation and 3.8 g of streptomycin sulfate was added to 1.7l of the supernatant. Precipitated nucleic acid was removed by centrifugation. […]

pepsin = molecular target: T1, pepsin (Sus scrofa, UniProt P00791); experiment: Assay of pepsin-inhibitory activity (casein digestion); assay type: biochemical
T1 construct: purchased SIGMA 2XCRY (grade as printed; no catalogue number)
T1 sequence (P00791 60-385): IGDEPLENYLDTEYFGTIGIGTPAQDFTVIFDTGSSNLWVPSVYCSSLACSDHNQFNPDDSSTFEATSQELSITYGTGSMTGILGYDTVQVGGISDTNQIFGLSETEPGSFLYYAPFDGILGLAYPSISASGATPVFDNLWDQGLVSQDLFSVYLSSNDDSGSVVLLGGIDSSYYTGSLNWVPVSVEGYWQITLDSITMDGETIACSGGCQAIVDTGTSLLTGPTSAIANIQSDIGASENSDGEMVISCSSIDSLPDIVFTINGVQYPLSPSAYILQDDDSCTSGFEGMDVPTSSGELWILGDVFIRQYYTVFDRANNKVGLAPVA
Description: Assay of pepsin-inhibitory activity in this invention was performed according to the following method: A mixture of 1 ml of 0.6%, by weight, highly purified case in dissolved in 0.08 M lactate buffer solution, pH 2.2, 0.7 ml of 0.02M KCl--HCl buffer solution, pH 2.0, and 0.2 ml of solution containing the compound sample was incubated at 37° C for 3 minutes. To this mixture 4 meg of pepsin (SIGMA, 2XCRY) dissolved in 0.1 ml of 0.2M KCl--HCl buffer solution were added. The mixture was incubated at 37° C for 30 minutes. The reaction was stopped by the addition of 2.0 ml of 1.7M perchloric acid. After 1 hour at room temperature, the optical density (a) of the supernatant liquid was read at 280 mμ. An inhibition rate was obtained according to:
where (b) is the optical density at 280 mμ of the tube without the sample solution.
The ID50 is defined as the amount necessary for 50% of the inhibition rate.

Solubility in solvents = assay type: physicochemical
mice [4] = experiment: Tolerated oral administration; assay type: in vivo
Description: as §2

dogs = experiment: Tolerated oral administration; assay type: in vivo
Description: as §2

rats = experiment: Tolerated oral administration; assay type: in vivo
Description: as §2

rabbits = experiment: Tolerated oral administration; assay type: in vivo
Description: as §2

Stomach ulcers in rats = experiment: Stress stomach ulcers in rats (method of Takagi et al.); assay type: in vivo; details: 50 - 200 mg/kg immediately after the stress and once daily for 4 days
Description: Stomach ulcers in rats made by the method described by Takagi et al. in the Japanese Journal of Pharmacology, 18, 9-19, 1958, that is, placing male rats in a cage at 23° C. for 22 hours, are protected or therapeutically treated by the compounds. […] When the dose was 10 mg/kg, the inhibition percentage of the ulcers was 50 - 60%.

[5] = Concentration 2 mM, control 100
[6] = Concentration 10 mM, control 100

SMILES: [N-]=[N+]=[N-].[Na+] [NaN3]
- Relative activity [1]: 100

SMILES: CC(C)C[C@H](NC(=O)[C@H](C)NC(=O)C[C@H](O)[C@H](CC(C)C)NC(=O)[C@@H](NC(=O)C(C)Oc1ccccc1)C(C)C)[C@@H](O)CC(=O)O (stereo partly drawn) [Phenoxypropionyl--Val--X--Ala--X, N--2--phenoxypropionyl--Val--X--Ala--X]
- Acute toxicity(mg/kg) LD50 (mice [2]): 2100 mg/kg
- IC50 (Cathepsin D): 15.4 nM

SMILES: c1cnc2c(c1)ccc1cccnc12 [o-Phenanthroline]
- Inhibition of the enzyme ([1]; 2mM): Inhibition
- Relative activity [1, 5]: 0

SMILES: CCCCCCCCCCCCCCCC(=O)N[C@H](C(=O)N[C@@H](CC(C)C)[C@@H](O)CC(=O)N[C@@H](C)C(=O)N[C@@H](CC(C)C)[C@@H](O)CC(=O)O)C(C)C [Palmitoyl--Val--X--Ala--X, N--palmitoyl--Val--X--Ala--X]
- IC50 (Cathepsin D): 1480 nM

SMILES: [Cl][Co][Cl] [Cobalt Chloride]
- increase in activity ([1]; 2mM): 34%
- increase in activity ([1]; 10 mM): 66%

SMILES: CC(C)CC(=O)N[C@H](C(=O)O)C(C)C [IVA--Val]
- susceptibility to the enzyme (hydrolysis) [3]: not split

SMILES: O=C(O)c1cc[c]([Hg][Cl])cc1 [p-Chloromercuribenzoate]
- Inhibition of the enzyme [1]: Inhibition
- Relative activity [1, 5]: 2

SMILES: O=C1CCC(=O)N1Br [N-Bromosuccinimide]
- Inhibition of the enzyme ([1]; 2mM): Inhibition
- Relative activity [1, 5]: 0

SMILES: [Cl-].[Cl-].[Zn+2] [Zinc Chloride]
- Relative activity [1, 5]: 66
- Relative activity [1, 6]: 44

SMILES: CC(C)CC(NC(=O)[C@H](C)NC(=O)CC(O)C(CC(C)C)NC(=O)[C@@H](NC(=O)COc1ccccc1)C(C)C)C(O)CC(=O)O (stereo partly drawn) [Phenoxyacetyl--Val--X--Ala--X, n--phenoxyacetyl--Val--X--Ala--X]
- Acute toxicity(mg/kg) LD50 (mice [2]): 1500 mg/kg
- IC50 (Cathepsin D): 12.6 nM

SMILES: CC(=O)[O-].CC(=O)[O-].[Hg+2] [Mercuric Acetate]
- Relative activity [1]: 0

SMILES: CC(=O)N[C@H](C(=O)NC(CC(C)C)C(O)CC(=O)N[C@@H](C)C(=O)NC(CC(C)C)C(O)CC(=O)O)C(C)C (stereo partly drawn) [Acetyl--Val--X--Ala--X, N--acetyl--Val--X--Ala--X]
- Acute toxicity(mg/kg) LD0 (mice [2]): ≥ 4000 mg/kg
- IC50 (Cathepsin D): 771 nM
- IC50 (pepsin): 56.9 nM

SMILES: [Ca+2].[Cl-].[Cl-] [Calcium Choride]
- increase in activity ([1]; 10 mM): 29%
- Relative activity [1, 5]: 110
- Relative activity [1, 6]: 129

SMILES: O=C(O)CI [Monoiodoacetic Acid]
- Relative activity [1]: 84

SMILES: O=C(O)CN(CCN(CC(=O)O)CC(=O)O)CC(=O)O [Ethylenediaminetetraacetic Acid]
- Relative activity [1, 5]: 30

SMILES: OCCS [β-Mercaptoethanol]
- Inhibition of the enzyme ([1]; 2mM): Inhibition
- Relative activity [1, 5]: 0

SMILES: CC(=O)[O-].CC(=O)[O-].[Pb+2] [Lead Acetate]
- Relative activity [1]: 43

SMILES: CC(C)C[C@H](NC(=O)[C@H](C)NC(=O)C[C@H](O)[C@H](CC(C)C)NC(=O)[C@@H](NC(=O)c1ccccc1)C(C)C)[C@@H](O)CC(=O)O [Benzoyl--Val--X--Ala--X, N--benzoyl--Val--X--Ala--X]
- Acute toxicity(mg/kg) LD50 (mice [2]): 1350 mg/kg
- IC50 (Cathepsin D): 82.4 nM
- IC50 (pepsin): 51.1 nM

SMILES: CC(C)C[C@H](NC(=O)[C@H](C)NC(=O)C[C@H](O)[C@H](CC(C)C)NC(=O)[C@@H](N)C(C)C)[C@@H](O)CC(=O)O [Val--X--Ala--X, L-valyl-4-amino-3-hydroxy-6-methylheptanoyl-L-alanyl-4-amino-3-hydroxy-6-methylheptanoic acid]
- solubility (Solubility in solvents; ether, ethyl acetate, and butyl acetate): insoluble
- solubility (Solubility in solvents; methanol, ethanol, pyridine, and acetic acid): soluble
- solubility (Solubility in solvents; n-proponal, n-butanol, n-amyl alcohol and acetone): slightly soluble
- Acute toxicity(mg/kg) LD0 (mice [2]): ≥ 5000 mg/kg
- tolerated oral administration (mice [4]): more than 2.000 mg/kg
- tolerated oral administration (dogs): more than 2.000 mg/kg
- tolerated oral administration (rats): more than 2.000 mg/kg
- tolerated oral administration (rabbits): more than 2.000 mg/kg
- IC50 (Cathepsin D): 12900 nM

SMILES: CC(C)C[C@H](NC(=O)[C@H](C)NC(=O)C[C@H](O)[C@H](CC(C)C)NC(=O)[C@@H](NC(=O)C(C)C)C(C)C)[C@@H](O)CC(=O)O [Isobutyryl--Val--X--Ala--X, N--isobutyryl--Val--X--Ala--X]
- IC50 (Cathepsin D): 489 nM

SMILES: CC(C)CC(=O)N[C@H](C(=O)N[C@@H](CC(C)C)[C@@H](O)CC(=O)N[C@@H](C)C(=O)N[C@@H](CC(C)C)[C@@H](O)CC(=O)O)C(C)C [Isovaleryl--Val--X--Ala--X, N--isovaleryl--Val--X--Ala--]
- Acute toxicity(mg/kg) LD0 (mice [2]): ≥ 3000 mg/kg
- IC50 (Cathepsin D): 76.7 nM

SMILES: CC(C)CC(=O)N[C@H](C(=O)N[C@H](C(=O)N[C@@H](CC(C)C)[C@@H](O)CC(=O)N[C@@H](C)C(=O)N[C@@H](CC(C)C)[C@@H](O)CC(=O)O)C(C)C)C(C)C [pepstatin]
- cure of ulcers (Stomach ulcers in rats): rapid cure of ulcers

SMILES: [Cl][Hg][Cl] [HgCl2]
- Inhibition of the enzyme ([1]; 2mM): Inhibition

SMILES: O[C@H](CS)[C@H](O)CS (racemic) [Dithiothreitol]
- Inhibition of the enzyme ([1]; 2mM): Inhibition
- Relative activity [1, 5]: 0

Reference: US4055468A, “Processes for producing physiologically active peptide and its N-acyl derivatives” (priority 1974, dated 1977)
